One assay has as its target FKBP (Homo sapiens, UniProt P62942). Description: Inhibition of FKBP PPIase (rotamase) activity, chymotrypsin-coupled assay. It is filed as biochemical. The settings on record: apparent Ki. From the text: The inhibition of the PPIase (rotamase) enzyme activity of the FKBP (apparent "Ki" values) can also be measured according to the methods described by either Harding, M.W. et al., Nature 341:758-760 (1989) or Siekierka, J.J. et al., Nature 341:755-757 (1989). The cis-trans isomerization of the […] peptide bond in a model substrate, N-succinyl-Ala-Ala-Pro-Phe-p-nitroanilide, is monitored spectrophotometrically in a coupled assay with chymotrypsin, which releases 4-nitroanilide from the trans form of the substrate. Fischer, G. et al., Nature 337:476-478 (1989). The inhibitory effect of the addition of different concentrations of inhibitor on the extent of the reaction is determined, and analysis of the change in first order rate constant as a function of inhibitor concentration yields an estimate of the apparent Ki value.

Assay [1] relates to human peripheral blood lymphocytes (PBC). The assay can be described thus: Mitogenesis assay, OKT3 stimulated proliferation. It is filed as cell-based. The settings on record: Lymphocyte, read-out: OKT3.
Text: (§4) Fresh peripheral blood lymphocytes (PBLs) from LeukoPak cells or whole blood from random normal blood donors (tested HIV-negative and hepatitis negative) are isolated and separated by density centrifugation over Histopaque 1077 (Sigma Chemical Co., St. Louis, MO). […] The human allogeneic B cell lines used for activation of the fresh PBLs are EBV-transformed lymphocytes from normal healthy adult donors with two completely different HLA haplotypes. All cell lines were routinely tested for the presence of Mycoplasma contamination using the Gibco Mycotect test kit and are Mycoplasma-free. Culture medium consists of RPMI 1640 (Gibco, Grand Island, NY) containing penicillin (50 U/ml) and streptomycin (50 µg/ml), L-glutamine 2 mM, 2 mercaptoethanol (5 x 10^-5), 10% heat-inactivated FCS and 10 mM HEPES.
For assay [2], the system named is PBLs stimulated with LB human viral-transformed B lymphoblastoid cell line. Description: MLR bioassay, PBLs stimulated with LB cells. It is filed as cell-based. The following applies: read-out: LB. From the text:
(§1) Fresh peripheral blood lymphocytes (PBLs) from LeukoPak cells or whole blood from random normal blood donors (tested HIV-negative and hepatitis negative) are isolated and separated by density centrifugation over Histopaque 1077 (Sigma Chemical Co., St. Louis, MO). The murine CTLL cytotoxic T cell line and the human Jurkat T cell line are from ATCC (CTLL-2 ATCC TIB214, JURKAT CLONE E6-1 ATCC TIBl52). The human allogeneic B cell lines used for activation of the fresh PBLs are EBV-transformed lymphocytes from normal healthy adult donors with two completely different HLA haplotypes. All cell lines were routinely tested for the presence of Mycoplasma contamination using the Gibco Mycotect test kit and are Mycoplasma-free. Culture medium consists of RPMI 1640 (Gibco, Grand Island, NY) containing penicillin (50 U/ml) and streptomycin (50 µg/ml), L-glutamine 2 mM, 2 mercaptoethanol (5 x 10^-5), 10% heat-inactivated FCS and 10 mM HEPES.
(§2) All chemical stocks were dissolved in DMSO.
(§3) Antigen activated proliferation of PBLs in a primary mixed lymphocyte reaction was assessed in the presence or absence of different concentrations of tested compounds and control drugs. 5 x 10^4 fresh PBLs were stimulated with 5 x 10^3 of Mitomycin C treated-allogeneic EBV-transformed […] cells, LB and JVM, in a final volume of 200 µl per well in 96-well round-bottomed plates (Mishell, B.B. and S.M. Shiigi, Selected Methods in Cellular Immunology W.H. Freeman and Co., San Francisco, CA (1980); Nelson, P.A. et al., Transplantation 50:286 (1990)). Cultures were pulsed on day 6, harvested 24 h later and counted as in previous section.

For a further assay, the target named is FK-506 binding protein (Homo sapiens, UniProt P62942). The assay can be described thus: Competitive binding assay with [3H]dihydro-FK-506. The following applies: binding to FKBP; apparent Kd, competition with [3H]dihydro-FK-506.
Assay [3] has as its system human peripheral blood lymphocytes (PBC). Description: Mitogenesis assay, PMA plus ionomycin stimulated proliferation. It is filed as cell-based. The following applies: Lymphocyte, read-out: PMA.
Text: as §4
The subject of assay [4] is CTLL-20 murine T cell line. The assay can be described thus: IL-2 microassay, IL-2 dependent CTLL proliferation. It is filed as cell-based. The settings on record: Mus musculus, read-out: CTLL.
Text: as §4
The test system of assay [5] is PBLs stimulated with JVM human viral-transformed B lymphoblastoid cell line. The assay can be described thus: MLR bioassay, PBLs stimulated with JVM cells. It is filed as cell-based. The settings on record: read-out: JVM.
Text: as §1, §2, §3

Assay [6] has as its system T-cell clone stimulated with antibody to the T-cell receptor (TCR) and antibody to CD2. Description: Table 3 assay 2: T-cell hybridoma + TCR/CD2 proliferation. It is filed as cell-based. The following applies: (3H)TdR incorporation, estimated.
A further assay relates to CTLL cells. Description: Table 3 assay 4: CTLL proliferation + IL-2. It is filed as cell-based. The following applies: Mus musculus, exogenous IL-2, (3H)TdR incorporation.
Assay [7] relates to fresh human peripheral blood lymphocytes. Description: Table 3 assay 1: human PBL + OKT3 proliferation. The following applies: Lymphocyte, OKT3 antibody (anti-CD3) stimulation, (3H)TdR incorporation, estimated. Type of assay: cell-based.
[8] abbreviates: OKT3 (10^-4 dilution final), inhibition of proliferation, 3H-thymidine.
Setting [9] is: mixed lymphocyte reaction, LB stimulator cells, inhibition of proliferation.
[10] abbreviates: inhibition of proliferation of cytotoxic T cells stimulated by IL-2.
Setting [11] is: mixed lymphocyte reaction, JVM stimulator cells, inhibition of proliferation.

Like-named read-outs stand apart in the source and are kept apart here.

Sequence of FK-506 binding protein (P62942 whole entry): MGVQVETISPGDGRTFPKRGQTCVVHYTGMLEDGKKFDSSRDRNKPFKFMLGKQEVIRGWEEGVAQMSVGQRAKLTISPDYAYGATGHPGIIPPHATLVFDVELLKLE
Sequence of FKBP (P62942 whole entry): as above

For the compound `COc1cc(C(=O)C(=O)N2CCCC[C@H]2C(=O)OC(CCCc2ccccc2)/C(C)=C/[C@H]2CC[C@H](O)CC2)cc(OC)c1OC` (mixture of isomers) [Compound 8, (R and S)-(E)-1-[trans-(4-Hydroxycyclohexyl)]-2-methyl-6-phenyl-3-hex-1-enyl (S)-N-(3,4,5-trimethoxyphenylglyoxyl)pipecolate], the Ki on FKBP came to 0.027 µM. Moreover, the IC50 in assay [1] (setting [8]) came out at 5 µM; in assay [2] (setting [9]), 10 µM; in assay [3] (3 h), 4 µM; in assay [4] (setting [10]), 4 µM; in assay [5] (setting [11]), 10 µM. The Kd on FK-506 binding protein turned out to be 0.03 µM.

Regarding `COc1cc(C(=O)C(=O)N2CCCC[C@H]2C(=O)OC(CCCc2ccccc2)c2ccccc2)cc(OC)c1OC` (stereo partly drawn) [Compound 6], the Ki on FKBP is 0.08 µM. Besides, the IC50 stood at 8 µM in assay [1] (setting [8]); 10 µM in [2] (setting [9]); 8 µM in [3] (3 h); 5 µM in [4] (setting [10]); 9 µM in [5] (setting [11]). In addition, at FK-506 binding protein, the Kd worked out at 0.04 µM.

Turning to `COc1ccc(CCC(CCCc2ccccc2)OC(=O)[C@@H]2CCCCN2C(=O)C(=O)c2cc(OC)c(OC)c(OC)c2)cc1` (stereo partly drawn) [Compound 13], at FKBP, the Ki was 0.004 µM. Further, the IC50 in [1] (setting [8]) was 10 µM; in assay [2] (setting [9]) it was above 10 µM; in [3] (3 h) it was 8 µM; in [4] (setting [10]), 9 µM; in assay [5] (setting [11]), above 10 µM. Moreover, at FK-506 binding protein, the Kd came out at 0.027 µM.

As for `COc1ccc(CCCC(CCCc2ccccc2)OC(=O)[C@@H]2CCCCN2C(=O)C(=O)c2cc(OC)c(OC)c(OC)c2)cc1` (stereo partly drawn) [Compound 17], on FKBP, the Ki turned out to be 0.003 µM. Further, the IC50 in [1] is 2.5 µM; in assay [2] it was 5.5 µM; in assay [3] it was 4.5 µM; in [4] (CTLL), above 10 µM; in [5], 7 µM. For the same compound, the Kd on FK-506 binding protein amounted to 0.068 µM.

As to `COc1cc(C(=O)C(=O)N2CCCC[C@H]2C(=O)OC(CCCc2ccccc2)CCCc2ccc(CO)cc2)cc(OC)c1OC` (stereo partly drawn) [Compound 26], the Ki at FKBP was determined as 0.004 µM. Moreover, the IC50 in assay [1] (setting [8]) came out at 1 µM; in assay [2] (setting [9]), 3 µM; in assay [3] (3 h), 3 µM; in assay [4] (setting [10]), 4 µM; in [5] (setting [11]), 2.5 µM. Further, the Kd on FK-506 binding protein worked out at 0.019 µM.

Turning to `C=CCOc1cccc(C(=O)C(=O)N2CCCC[C@H]2C(=O)OC(CCCc2ccccc2)CCCc2cccnc2)c1` (stereo partly drawn) [Compound 28], on FKBP, the Ki was determined as 0.011 µM. In addition, the IC50 in [1] (setting [8]) amounted to 6 µM; in [2] (setting [9]), 8 µM; in assay [3] (3 h), 5 µM; in assay [4] (setting [10]), 3 µM; in [5] (setting [11]), 9 µM.

Regarding `CC(C)Oc1cccc(C(=O)C(=O)N2CCCC[C@H]2C(=O)OC(CCCc2ccccc2)CCCc2cccnc2)c1` (stereo partly drawn) [Compound 29], the Ki on FKBP stood at 0.002 µM. Moreover, the IC50 in assay [1] (setting [8]) is 8 µM; in [2] (setting [9]), above 10 µM; in assay [3] (3 h), 10 µM; in assay [4] (setting [10]), 4 µM; in assay [5] (setting [11]) it was above 10 µM. For the same compound, on FK-506 binding protein, the Kd amounted to 0.003 µM.

With `COc1cc(C(=O)C(=O)N2CCCC[C@H]2C(=O)OC(CCCCc2ccccc2)CCCc2ccccc2)cc(OC)c1OC` (stereo partly drawn) [Compound 32], at FKBP, the Ki was found to be 0.02 µM. Further, the IC50 in assay [1] (setting [8]) is 8 µM; in assay [2] (setting [9]), above 10 µM; in [3] (3 h) it was 9 µM; in assay [4] (setting [10]), 7.5 µM; in assay [5] (setting [11]), above 10 µM.

For `COc1cc(C(=O)C(=O)N2CCCC[C@H]2C(=O)OC(CCCc2ccccc2)c2ccccc2CO)cc(OC)c1OC` (stereo partly drawn) [Compound 33], on FKBP, the Ki was 0.089 µM. Moreover, the IC50 in assay [1] (setting [8]) stood at 5 µM; in assay [2] (setting [9]) it was 2 µM; in assay [3] (3 h) it was 5 µM; in assay [4] (setting [10]) it was 3 µM; in assay [5] (setting [11]), 4.5 µM.

For the compound `COc1cc(C(=O)C(=O)N2CCCC[C@H]2C(=O)OC(CCCc2ccccc2)CCCc2cccc(CO)c2)cc(OC)c1OC` (stereo partly drawn) [Compound 35], the Ki at FKBP was determined as 0.001 µM. The IC50 in [1] (setting [8]) worked out at 6.5 µM; in assay [2] (setting [9]), 2.5 µM; in assay [3] (3 h), 2.7 µM; in [4] (setting [10]), 2.5 µM; in assay [5] (setting [11]) it was 3 µM. Besides, the Kd at FK-506 binding protein amounted to 0.04 µM.

With `COc1cc(C(=O)C(=O)N2CCCC[C@H]2C(=O)OC(CCCc2ccccc2)CCCc2cccc(C(=O)O)c2)cc(OC)c1OC` (stereo partly drawn) [Compound 36], the Ki at FKBP was determined as 0.004 µM. For the same compound, the IC50 in [1] (setting [8]) was above 10 µM; in [2] (setting [9]), above 10 µM; in assay [3] (3 h), above 10 µM; in assay [4] (setting [10]), above 10 µM; in assay [5] (setting [11]), 9 µM. At FK-506 binding protein, the Kd came out at 0.02 µM.

As to `COc1cc(C(=O)C(=O)N2CCCC[C@H]2C(=O)OC(CCCc2ccccc2)c2cccc(CO)c2)cc(OC)c1OC` (stereo partly drawn) [Compound 37], at FKBP, the Ki is 0.007 µM. Further, the IC50 was found to be 5 µM in assay [1] (setting [8]); 1.2 µM in [2] (setting [9]); 2 µM in assay [3] (3 h); 1.2 µM in [4] (setting [10]); 2.2 µM in [5] (setting [11]). Besides, at FK-506 binding protein, the Kd was 0.14 µM.

For `COc1cc(C(=O)C(=O)N2CCCC[C@H]2C(=O)OC(CCCCc2ccccc2)CCCc2cccs2)cc(OC)c1OC` (stereo partly drawn) [Compound 40], the Ki on FKBP is 1.1 µM. Further, the IC50 in [1] (setting [8]) was above 10 µM; in [2] (setting [9]) it was above 10 µM; in assay [3] (3 h), above 10 µM; in [4] (setting [10]) it was 10 µM; in assay [5] (setting [11]), above 10 µM.

For the compound `COc1cc(C(=O)C(=O)N2CCCC[C@H]2C(=O)OC(CCCCCc2ccccc2)CCCc2ccccc2)cc(OC)c1OC` (stereo partly drawn) [Compound 41], the Ki on FKBP was 0.045 µM. In addition, the IC50 in assay [1] (setting [8]) was above 10 µM; in assay [2] (setting [9]) it was above 10 µM; in assay [3] (3 h) it was 7 µM; in assay [4] (setting [10]) it was above 10 µM; in assay [5] (setting [11]), 10 µM.

For `C=CC[C@@H]1/C=C(\C)C[C@H](C)C[C@H](OC)[C@H]2O[C@@](O)(C(=O)C(=O)N3CCCC[C@H]3C(=O)O[C@H](/C(C)=C/[C@@H]3CC[C@@H](O)[C@H](OC)C3)[C@H](C)[C@@H](O)CC1=O)[C@H](C)C[C@@H]2OC` [FK-506], the values for the IC50 (in assay [6]; in the assay with CTLL cells; in assay [7]) were below 1 µg/mL, above 1 µg/mL and below 1 µg/mL, respectively.

Values taken from patent EP0584223B1, “NOVEL IMMUNOSUPPRESSIVE COMPOUNDS” (VERTEX PHARMACEUTICALS INCORPORATED, priority 1991, dated 1992).
